Patent US8071368B2, “Methods for promoting growth and survival of insulin-secreting cells” (Alizé Pharma SAS, priority 2001, dated 2011)
Non-standard residues stand in square brackets, D forms with d. Residues, ends and D or L forms follow the SMILES beside them. No end group written: not given here. *: point of attachment. dTrp(2-Me) = Cc1[nH]c2ccccc2c1C[C@@H](N)C(=O)O; Octanoyl = CCCCCCCC(=O)*

How the values were obtained:
caspase-3 = caspase-3 activation in HIT-T15 cells; type: cell-based; settings: serum-starved and cytokine-treated cells, data not shown
cAMP = test: intracellular cAMP concentration in HIT-T15 cells; type: cell-based; settings: 100 nM, with IBMX
Description: Initially, the unacylated ghrelin-induced cAMP intracellular variation was examined.
cAMP induction by ghrelin was then evaluated at 15 min in either serum-free medium alone or with addition of IFN-γ/TNF-α in the presence of IBMX.
The results are the mean±SEM of three independent experiments performed in triplicate (*P<0.05 vs basal time point). FIG. 10B illustrates the cAMP levels in cells incubated in the presence of serum or in serum-free (SF) medium±unacylated ghrlein (100 nM each) alone or with IFN-γ/TNF-α combination (100 ng/ml and 200 ng/ml respectively). Data are the mean±SEM of at least three independent experiments performed in triplicate (*P<0.05).

[1] = 16 h intravenous infusion of unacylated ghrelin in healthy males; type: in vivo, human; settings: 1.0 μg/Kg/h iv 16 h
HIT-T15 cells [2] = test: HIT-T15 apoptosis, Hoechst 33258 staining; type: cell-based
Excerpt: Apoptosis is the main form of pancreatic β-cell death in animal models of type 1 diabetes mellitus. […] Moreover, they partially lost their capacity to form islet-like structures (FIG. 9A, upper panel, and 9B). Cytokines further increased apoptosis (˜27%), cells appearing smaller and unable to form islets (FIG. 9A, lower panel, and FIG. 9B). […] Accordingly, others have reported that ghrelin exerts proliferative and antiapoptotic effects at high concentrations […] in different cell types.
(§1) In FIG. 9B, apoptosis is evaluated by counting condensed/fragmented Hoechst-stained nuclei (SF, serum-free medium). Values are expressed as percent of apoptotic cells and are the mean±SEM of duplicate determinations (500 cells each) of three independent experiments (*P<0.05; **P<0.01). In FIG. 9C, cell proliferation is assessed by BrdU uptake (ELISA). The results are expressed as percent of control (serum starved cells) and are the mean±SEM of three independent experiments (*P<0.05,**P<0.01). FIG. 9D illustrates ghrelin secretion in HIT-T15 conditioned medium following exposure to either serum, SF±cytokines. The results are the mean±SEM of three independent experiments, each performed in quadruplicate (*P<0.05). In FIG. 9E, apoptosis is determined by Hoechst 33258 of cells cultured for 48 h in the presence of serum or in SF medium alone with addition of an anti-ghrelin antibody (α-ghrelin Ab), (*P<0.05,**P<0.01 vs 0 μg/ml α-ghrelin Ab in each condition).

[3] = co-administration of unacylated ghrelin and ghrelin in normal human volunteers; type: in vivo; settings: 1 μg/kg iv at 0 min with ghrelin 1 μg/kg iv
Excerpt: Thus it appears that unacylated ghrelin is acting as a functional antagonist of the peripheral actions of ghrelin.

HIT-T15 cells [4] = test: HIT-T15 cell survival, MTT assay; type: cell-based; settings: serum-free conditions and in the presence of cytokines
HIT-T15 cells [5] = test: HIT-T15 cell proliferation, BrdU incorporation; type: cell-based; settings: for effect on unacylated ghrelin-induced cell proliferation: preincubation, unacylated ghrelin 100 nM, NF449 10 μM, PTX 50 ng/ml
Description: This effect was similar to that observed in cells cultured in normal conditions, i.e. in the presence of serum (15% HS, 2.5% FBS).
To investigate the signaling pathways involved in ghrelin mitogenic effect, the cells were preincubated (30 min) with NF449, a selective Gαs protein-coupled receptor antagonist.
In FIG. 8A to 8E, HIT-T15 cells were cultured in serum-free medium (Control) for 24 h, UAG alone or with NF449 and pertussis toxin (PTX) were added to the incubation medium for further 24 h. In FIG. 8A, cell proliferation was measured by BrdU uptake in cells cultured in the presence or absence of serum, UAG at the concentrations indicated. […] Data are expressed as the percentage relative to control and are the means±SEM of eight replicates within a single representative experiment that was repeated at least 3 times (*P<0.05,**P<0.01).
as §1

HIT-T15 cell membranes = test: 125I-[Tyr4]-unacylated ghrelin binding to HIT-T15 cell membranes; settings: unlabeled competitor
Excerpt: Binding is expressed as percentage of control (specific binding in the absence of unlabeled competitor);

[6] = glucose and insulin after single intravenous human ghrelin in healthy young male volunteers; type: in vivo; settings: 1.0 μg/kg i.v. at 0', vs placebo
[7] = preprandial GHS administration in normal human beings with GH receptor antagonist pegvisomant; type: in vivo; settings: 1 μg/Kg i.v. preprandial
Excerpt: Because in this study GH-action was blocked by pegvisomant, these GHS-mediated metabolic changes on the “gastro-entero-hepatic axis” must be direct and non-pituitary mediated.

[8] = ghrelin and GH rhythms during three days fasting, GHRP-6 bolus, healthy volunteers; type: in vivo, human; settings: 1 μg/kg on the 3rd day of fasting
Description: In order to understand the diurnal rhythms of ghrelin and GH secretion during fasting, a study was conducted on 10 healthy human volunteers with normal body mass index. […] Fasting rapidly induces a diurnal ghrelin rhythm that is followed by a similar GH rhythm. […] This phenomenon cannot be explained by changes in insulin, glucose or free fatty acid levels. Thus it appears that the metabolic effects of ghrelin are distinct from its effects on GH secretion.
By the use of the GH receptor antagonist pegvisomant, indirect evidence was provided that these changes in serum ghrelin levels are not regulated by the GH receptor. Finally, it was shown that administration of the synthetic GHS, GHRP-6, produced a decrease in peak ghrelin levels, but this effect was only observed after several hours, indicating the existence of a long-loop feedback system of GHS's on ghrelin secretion.

Q: What does the source list for “NH2Gly-Ser-Ser-Phe-Leu-Ser-Pro-Glu-His-Gln-Arg-Val-Gln-Gln-Arg-Lys-Glu-Ser-Lys-Lys-Pro-Pro-Ala-Lys-Leu-Gln-Pro-Arg (H-GSSFLSPEHQRVQQRKESKKPPAKLQPR) [unacylated ghrelin]”?
A: caspase-3 activation (caspase-3): significantly reduced; cAMP levels over time (cAMP; serum starved cells, 5 to 60 min): transient increase within 5 min; cAMP at 15 min (cAMP; serum-free medium alone or with IFN-γ/TNF-α): significantly up-regulated cAMP; FFA profile ([1]; post-prandially and at fasting): reduced both post-prandially (p<0.01) and at fasting; glucagon profile ([1]; vs saline): significantly modified the profile of all parameters, except glucagon; total insulin AUC ([1]; vs saline): did not modify; GH AUC ([1]; vs saline, p<0.01): lower; cortisol AUC ([1]; vs saline, p<0.01): lower; free fatty acid (FFA) AUC ([1]; vs saline, p<0.01): decreased; glucose AUC ([1]; vs saline, p<0.01): decreased; early insulin response to dinner and breakfast ([1]; dinner p<0.01, breakfast p<0.05): enhanced; serum-starvation-induced apoptosis (HIT-T15 cells [2]; 100 nm, serum-deprived medium): almost completely prevented; apoptosis triggered by the IFN-γ/TNF-α combination, percent of apoptotic cells (HIT-T15 cells [2]; 100 nm, cytokines alone ~27%): ~12%; lowest significantly active concentration, antiapoptotic effect (HIT-T15 cells [2]; data not shown): 1 nm; ghrelin-induced decrease in insulin levels [3]: totally prevented; ghrelin-induced increase in glucose [3]: totally prevented; cell viability (MTT) (HIT-T15 cells [4]): significantly increased cell viability; cell proliferation in the presence of IFN-γ/TNF-α (HIT-T15 cells [5]; 100 nM, cytokines 100 ng/ml and 200 ng/ml, 24 h): dramatically restored cell proliferation; cell proliferation (BrdU incorporation) (HIT-T15 cells [5]; serum-free medium, 1 pm to 1 μm, 24 h): significantly and dose-dependently induced cell proliferation; competition with 125I-labeled [Tyr4]-unacylated ghrelin for binding sites (HIT-T15 cell membranes): competed

Q: Which “effect on unacylated ghrelin-induced cell proliferation” value (HIT-T15 cells [5]) does the source give for pertussis toxin [reference compound] here?
A: had no effect

Q: For “ghrelin: gastric hormone of 28 amino acids with an n-octanoyl ester at its third serine residue (GSS(Octanoyl)FLSPEHQRVQQRKESKKPPAKLQPR)”, which Δ glucose [6] is on record?
A: elevation in glucose

Q: And the Δ insulin [6]?
A: acute decrease in insulin

Q: With O=C(Nc1cc(C(=O)Nc2ccc(S(=O)(=O)O)cc2S(=O)(=O)O)cc(C(=O)Nc2ccc(S(=O)(=O)O)cc2S(=O)(=O)O)c1)Nc1cc(C(=O)Nc2ccc(S(=O)(=O)O)cc2S(=O)(=O)O)cc(C(=O)Nc2ccc(S(=O)(=O)O)cc2S(=O)(=O)O)c1 [NF449, reference compound] as the compound, how does the “effect on unacylated ghrelin-induced cell proliferation” value (HIT-T15 cells [5]) read?
A: complete blockade

Q: With Cc1[nH]c2ccccc2c1C[C@@H](NC(=O)[C@@H](N)Cc1cnc[nH]1)C(=O)N[C@@H](C)C(=O)N[C@@H](Cc1c[nH]c2ccccc12)C(=O)N[C@H](Cc1ccccc1)C(=O)N[C@@H](CCCCN)C(N)=O [hexarelin] (H-H[dTrp(2-Me)]AW[dF]K-NH2) as the compound, how does the “competition with 125I-labeled [Tyr4]-unacylated ghrelin for binding sites” value (HIT-T15 cell membranes) read?
A: competed

Q: Which results are given for GHRP-6?
A: serum insulin concentrations ([7]; in the presence of pegvisomant): impressive increase in serum insulin concentrations; postprandial serum glucose levels ([7]; only in the presence of pegvisomant): induces a postprandial increase in serum glucose levels; peak ghrelin levels [8]: attenuated peak ghrelin levels in the afternoon
